Measured values: US7128898B2, “Method of minimizing cell lysis and toothpaste and mouthwash with reduced irritancy” (priority 1999, dated 2006)

Tested on: red blood cells
Test: Red blood cell haemolysis assay
Assay type: cell-based
From the text: In order to determine the relative toxicity or irritancy levels of various toothpastes and mouthwashes, a red blood cell heamolysis assay was employed to obtain information on the effects of these substances on cell membrane integrity. The Red Blood Cell assay provides a simple test system that uses easily obtainable cells and is characterized by defined and objective endpoints. […] Haemoglobin release is a useful endpoint of cell membrane integrity. It is therefore highly suitable as a screening assay in a first-order in vitro test battery for the assessment of potential toxicity to tissue, including tissues of the oral cavity.
To assess the membranolytic activity of test materials. The test materials are incubated with isolated red blood cells. The degree of damage to the red blood cell membrane is quantified by spectro-photometric measurement of released haemoglobin.
Red blood cells are isolated concentrations of the test materials defined from results of a range finding study; released is measured at 541 nm and the concentration resulting in 50% hemolysis (relative to a totally lysed sample) calculated. […]
(b) After the final centrifugation, the packed cell volume is diluted with phosphate buffered saline (PBS) to give an approximate 2% erythrocyte suspension. […] The exact volume of PBS required for a 2% suspension is calculated from the optical density and adjusted accordingly. […]

| Compound | % Hemolysis (Individual Components) (0.05% CPC) [%] | % Hemolysis (Individual Components) (0.10% DHA) [%] |
| --- | --- | --- |
| CCCCCCCCCCCCCCCC[n+]1ccccc1 [CPC, Cetylpyridinium Chloride] | 92.36 | – |
| CC(=O)C1C(=O)C=C(C)OC1=O (centres unmarked) [DHA, dehydroacetic acid] | – | 3.24 |
